Values joined by “and” are separate entries in the source; they are usually repeats but may differ in a detail not shown here. Equal entries are not always repeated.
Key:
[1] = tested on: rat gastric corpus mucosa; experiment: Transepithelial flux of 14C-labeled probes (mannitol, sucrose, polyethylene glycol) before and after PPI; conditions: for Post-Omeorazole transmucosal flux / Pre-Omeorazole transmucosal flux: mean +/- SE, 3 experiments; for Pre-Omeorazole transmucosal flux: before 200 μM omeprazole
Experimental: In each experiment, one adult male Sprague Dawley rat was sacrificed by decapitation. The stomach was removed, flushed, and stripped of its outer serosal membrane, while being frequently moistened with chilled, unbuffered saline. Two pieces of corpus mucosa were mounted in modified Ussing chambers, with exposed tissue surface area of 1.13 cm^2. Chambers were connected to gas-lift reservoirs, with a fluid volume of 17 mL per hemichamber. The mucosal hemichamber was filled with unbuffered saline (with 17 mM glucose) and kept aerated and perfused with 100% O2 at 37° C. […] Water-jacketed reservoirs maintained chamber saline at 37° C.
KRB was adjusted to a pH of 7.3-7.4.
Unbuffered saline was gassed with 100% O2 and was used to bathe the mucosal side of the gastric mucosa.
Approximately 30 minutes after tissues were mounted in Ussing chambers, dibutyrl cyclic AMP (dB-cAMP) (Sigma, St. Louis, Mo.) was added to the serosal sides of both chambers to a concentration of 1 mM in order to stimulate acid output by the tissue.
Three experiments were performed with each PPI, examining gastric permeability to ^14C-mannitol.
Three experiments were performed at each omeprazole concentration.

[2] = tested on: rat gastric corpus mucosa; experiment: Transepithelial drug flux studies (3H-digoxin, 14C-phenytoin, mucosal to serosal) before and after omeprazole or DMSO; format: in vitro ADME; conditions: 0.1 mM probe
Experimental: Sprague Dawley male rats weighing approximately 400 grams were sacrificed by decapitation and the stomach was quickly removed, cut along the greater curvature, and flushed of luminal contents. The serosal membrane was then stripped from the corpus region and two equal sized pieces of corpus mucosa were mounted in two separate Ussing chambers with exposed tissue areas of 1.13 cm^2. Chambers were connected to 15 mL gas-lift reservoirs filled with un-buffered saline aerated with 100% O2 and bicarbonate-buffered saline aerated with 95% O2/5% CO2 on the mucosal and serosal sides, respectively. Saline temperature was held constant at 37° C. by a jacketed water bath surrounding the reservoirs. 30 minutes at 37° C. was allowed for tissue equilibration. In paired experiments, one tissue served as (vehicle) ‘control’, and the other as omeprazole-treated ‘experimental’.
After 30 minutes of tissue equilibration time in Ussing chambers, dibutyrl cyclic AMP (dBcAMP) (Sigma) was added to a final concentration of 1 mM to the serosal fluid chambers to stimulate acid secretion. […] The addition of the isotope marked the beginning of the flux period. 150 μL or 250 μL samples were taken from the serosal fluid compartment (opposite from which the isotope was added) for liquid scintillation counting (LSC). Samples were initially taken at 30 minute intervals for 90 minutes for the ^14C-phenytoin flux or at 15 minute intervals for 75 minutes for the ^3H-digoxin flux to establish the basal permeability rate (ρmoles/min/cm^2) across the tissue. 200 μM omeprazole (Sigma) (in DMSO) was then added to the mucosal and serosal sides of one chamber and an equivalent amount of DMSO (Sigma) was also added to both sides of the control chamber. Another series of serosal fluid samples were taken for LSC at 15 or 30 minute intervals for the remaining 60 minutes of ^3H-digoxin or ^14C-phenytoin flux experiments, respectfully, to determine flux rate of the radiolabeled drugs after omeprazole addition. In all cases of fluid sampling for liquid scintillation counting, an equal amount of fresh buffered saline was added back to the serosal side to prevent hydrostatic gradients from developing across the tissue. The flux of each isotope (ρmole/min/cm^2) was determined by calculating the linear regression slope of the graph of cpm versus time, and converting cpm to picomoles after determining the specific activity of the drug in the mucosal fluid.
To observe if the omeprazole-induced leak allows for permeation of certain small molecule drugs, ^3H-digoxin was added to the mucosal fluid compartment and saline samples were taken at 15 minute intervals from the serosal fluid compartments for a 135-minute flux period. Omeprazole and/or DMSO were added to their respective tissues 75 minutes after the addition of the isotope. Radioactivity present in the serosal fluid compartment was measured as a function of time before and after the addition of omeprazole or DMSO.

[3] = tested on: first-time-presenting GERD patients; experiment: Sucrose permeability test before and at the end of an 8 week course of esomeprazole (NEXIUM); format: in vivo, human
Experimental: Patients with GERD were recruited from a primary care practice, to which they were presenting for the first time with their disease. […] With the exception of their GERD, these patients met the above criteria at the time of their recruitment, and were recruited in a similar manner. […] An 8 hour overnight urine sample was collected in a container with 5 ml of 10% thymol in isopropanol as antimicrobial preservative. A courier service picked up urine containers at the patient's home and delivered them to the research laboratory. Total urine volume and refractive index were measured and recorded. […] This amount of sucrose equates to the amount of sucrose which leaked from the upper GI lumen. The next study posed the question of whether PPI therapy would improve barrier function in the upper GI tract by allowing for reduction of mucosal inflammation and damage ensuing from esophagitis and gastritis. An early hypothesis was that PPI therapy would improve barrier function in the upper GI tract of first-time-presenting GERD patients, by allowing for reduction of mucosal inflammation and damage ensuing from any esophagitis or gastritis. […] As previously mentioned, this was in contrast to an earlier study (Mullin et al. (2006) Dig. Dis. Sci., 51:2326-36) which utilized GERD patients who had been previously diagnosed and under the care of a gastroenterologist. […] A 4 week follow up check was performed on all patients, and all reported significant symptom improvement with mild if any side effects.

[4] = tested on: rat gastric corpus mucosa; experiment: Acid secretion (mucosal fluid pH) of dB-cAMP stimulated tissue in Ussing chambers; conditions: ex vivo addition; 200 μM omeprazole, 200 μM lansoprazole, 100 μM esomeprazole
Experimental: Water-jacketed reservoirs maintained chamber saline at 37° C.
In order to confirm stimulation of acid secretion by secretagogue addition and to verify the efficacy of the PPI, mucosal fluid compartment pH was recorded at intervals throughout the experiment with a manual electrode (Denver Instruments, Denver, Colo.). Ag/AgCl voltage and current electrodes were used to measure PD (potential difference) and ISC (short circuit current) approximately every five minutes for the duration of the experiment, as previously described (Hameed et al. (2004) Dig. Dis. Sci., 49:1381-1386), using two single-channel current/voltage clamps (McGrath Research and Technology). Ohm's Law was used to calculate transepithelial electrical resistance across the tissue.
Mucosal and serosal saline pH measurements were taken at approximately five minute intervals using a manual electrode (Denver Instruments) to ensure that the tissue was secreting acid. Mucosal pH readings were also taken before and after the addition of omeprazole to document the action of omeprazole on inhibiting acid secretion. Tissue viability was confirmed at the end of each experiment by tissue exposure to 10 mM amiloride in the mucosal fluid compartment in order to inhibit short circuit current.

[5] = tested on: healthy controls; experiment: Sucrose permeability test, time course and reversibility of the esomeprazole-induced leak; format: in vivo, human; conditions: for durations with statistically significant elevation of sucrose leak: esomeprazole 40 mg once/day for 1, 2, 3, 5, 7 or 9 days, P<0.05
Experimental: Healthy controls were recruited without regard to gender or ethnicity, from an age range of 18-80. Their exclusion criteria were no prior gastrointestinal surgery and no current gastrointestinal disease. Because of the nature of the permeability test being used, diabetics and those with renal insufficiency were likewise excluded. Those participating did so only after personally signing an informed consent that was approved prior by the Lankenau Hospital Institutional Review Board. […] An 8 hour overnight urine sample was collected in a container with 5 ml of 10% thymol in isopropanol as antimicrobial preservative. A courier service picked up urine containers at the patient's home and delivered them to the research laboratory. Total urine volume and refractive index were measured and recorded. […] This amount of sucrose equates to the amount of sucrose which leaked from the upper GI lumen. The next study was begun to reduce the (disease) variables that may be at play in working with a GERD population and simultaneously assess the time course with which a PPI leak may establish. As described above, a volunteer group of healthy controls without any active GI disease or prior surgeries was recruited. Volunteers were randomly assigned to duration groups of 1, 2, 3, 5, 7 or 9 days. […] As in FIG. 2, a rising bar indicates greater leak in the second test, a falling bar indicates a lower leak at the second test. […] However the average leak of the second test was greater than the first by the second day and then consistently climbed further out through the nine days. […] The figure gives the average leak of the first (pre esomeprazole) test, the second test and the third (4 day post-esomeprazole) test. Although the second test is statistically different from the first or the third (P<0.01), the third test is not statistically different from the first, evidencing the relative rapid reversibility of the leak phenomenon.

[6] = tested on: healthy controls; experiment: Sucrose leak test before and after five days of omeprazole or famotidine; format: in vivo, human
Experimental: An 8 hour overnight urine sample was collected in a container with 5 ml of 10% thymol in isopropanol as antimicrobial preservative. A courier service picked up urine containers at the patient's home and delivered them to the research laboratory. Total urine volume and refractive index were measured and recorded. […] This amount of sucrose equates to the amount of sucrose which leaked from the upper GI lumen.
H-2 blockers such as PEPCID® (famotidine) also cause a GI leak. The instant study was first performed with 20 subjects, all healthy controls. Randomly 10 were put on PPIs (20 mg of omeprazole), 10 on H-2 blockers (40 mg of famotidine). These amounts are standard for acid suppression therapy. […] They were given doses of these drugs in the morning for five days. A sucrose leak test was done the night of the fifth and last day.
Therefore, a second H-2 blocker study was performed looking at leak in an n=5 group but doing evening doses of famotidine and maintaining the other aspects of the above study, with the post H-2 blocker leak test performed again the night of the 5th dose, but now only with a 4-6 hours after the 5th and final dose.

[7] = 0.1 mM 14C-labeled probe, after 200 μM omeprazole

OC[C@H]1O[C@@](CO)(O[C@H]2O[C@H](CO)[C@@H](O)[C@H](O)[C@H]2O)[C@@H](O)[C@@H]1O [Sucrose]
Post-Omeorazole transmucosal flux [1, 7]: 24.19 +/− 4.67 ρmoles/min/cm^2 | Pre-Omeorazole transmucosal flux ([1]; 0.1 mM 14C-labeled probe): 11.71 +/− 3.39 ρmoles/min/cm^2

OC[C@@H](O)[C@@H](O)[C@H](O)[C@H](O)CO [[D]-Mannitol]
% Increase in Flux [1, 7]: 68.72% and 68.72 +/− 8.32% | Post-Omeorazole transmucosal flux [1, 7]: 37.81 +/− 1.32 ρmoles/min/cm^2 | Pre-Omeorazole transmucosal flux ([1]; 0.1 mM 14C-labeled probe): 22.45 +/− 0.61 ρmoles/min/cm^2 | % Increase in Flux After Omeprazole ([2]; 200 μM omeprazole): 68.7% ± 8.4% | Post-Omeprazole Flux Value ([2]; after 200 μM omeprazole, corrected by TLC): 31.6 ± 3.9 ρmole/min/cm^2 | Pre-Omeprazole Flux Value ([2]; before 200 μM omeprazole, 3 experiments): 21.2 ± 5.3 ρmole/min/cm^2 | % Increase in Flux After DMSO ([2]; vehicle control tissue): 23.0% ± 15.3% | Post-DMSO Flux Value ([2]; vehicle control tissue, corrected by TLC): 27.2 ± 2.4 ρmole/min/cm^2 | Pre-DMSO Flux Value ([2]; vehicle control tissue, mean ± SEM, 3 experiments): 22.7 ± 3.3 ρmole/min/cm^2

COc1ccc2nc([S@@+]([O-])Cc3ncc(C)c(OC)c3C)[nH]c2c1 [esomeprazole]
average initial sucrose leak ([3]; before esomeprazole, 26 patients, mean, SEM): 72 mg | average initial leak, all patients ([3]; before esomeprazole, all 37 patients): 179 mg | patients whose post-NEXIUM sucrose leak was smaller ([3]; end of 8 week course vs before): 4 of 25 | patients whose post-NEXIUM sucrose leak was greater ([3]; end of 8 week course vs before, total sucrose in overnight urine): 21 of 26 | patients with increased leak above the 200 mg threshold level ([3]; end of 8 week esomeprazole 40 mg/day): 14 of 21 | mean final sucrose leak ([3]; end of 8 week esomeprazole 40 mg/day, 26 patients, mean, SEM): 325 mg | final leak, all patients ([3]; end of 8 week esomeprazole 40 mg/day, all 37 patients): 307 mg | effect on acid secretion (rate of mucosal acidification) [4]: inhibited acid secretion | sucrose leak in third test (reversibility) ([5]; 4 days after finishing 5, 7 or 9 day esomeprazole course, n=9): decreases to near baseline | leak in second test greater than first (pre esomeprazole) test, average ([5]; day 9 of esomeprazole 40 mg once/day): ~400 mg | durations with statistically significant elevation of sucrose leak [5]: fifth day | durations with statistically significant elevation of sucrose leak ([5]; listed as NEXIUM®): 5, 7 and 9 day durations | % Increase in Flux of 14C-[D]-mannitol ([1]; 100 μM PPI): 101.62% | % Increase in Flux of 14C-[D]-mannitol ([1]; 100 μM PPI, listed as Esomeprazole): 101.62 +/− 10.04%

NC(N)=Nc1nc(CSCCC(N)=NS(N)(=O)=O)cs1 [famotidine]
pre-med sucrose leak ([6]; baseline before medication, n=10 per group, SEM): 50 mg | pre H-2 blocker leak, second study ([6]; baseline, n=5, SEM): 46 mg | post H-2 blocker leak, second study ([6]; evening doses of famotidine, test 4-6 hours after 5th dose, n=5, P=0.03): 132 mg | post med sucrose leak ([6]; morning doses for five days (20 mg omeprazole or 40 mg famotidine), test night of fifth day, n=10): 110 mg

Cc1c(OCC(F)(F)F)ccnc1C[S+]([O-])c1nc2ccccc2[nH]1 (centres unmarked) [lansoprazole, 2-(((3-methyl-4-(2,2,2-trifluoro-ethoxy)-2-pyridinyl)methyl)sulfinyl)-1H benzimidazole]
effect on acid secretion (rate of mucosal acidification) [4]: inhibited acid secretion | % Increase in Flux of 14C-[D]-mannitol ([1]; 200 μM PPI): 83.35% | % Increase in Flux of 14C-[D]-mannitol ([1]; 200 μM PPI, listed as Lansoprazole): 83.35 +/− 20.71%

From US20110046079A1, “Use of Proton Pump Inhibitors as Drug Delivery Adjuvants” (priority 2008, published 2011)
